Experimental data reported in patent publication US10351519B2, “Sulfamate derivative compounds, processes for preparing them and their uses” (BIO-PHARM SOLUTIONS CO., LTD., priority 2016, dated 2019).

Tests used:
Assay type in all cases: in vivo
Sprague-Dawley rats [1] = experiment: Antiallodynic activity on Chung model (SNL, spinal nerve ligation); conditions: orally; for ED50: Rattus norvegicus, po, at peak time; for SNL efficacy %: 30 mg/kg
From the text: Male Sprague-Dawley rats (100-130 g, Orient Bio, Korea) were habituated for 1 week before the experiment and allowed free access to food and water throughout the experimentation. Room temperature and humidity were maintained at 24±2 and 50±10%, respectively. The neuropathic surgery (SNL, Spinal nerve ligation) model was done as described in Kim and Chung (1992). Briefly, an animal was put under gaseous anesthesia with isoflurane. The left lumber spinal nerve L5 and L6 were isolated and tightly ligated with 6-0 silk thread. The wound muscle was closed with Catgut® chrom 3/0 thread and skin was closed with Dafilon 3/0 tread. Sham controls were prepared in the same manner with the spinal nerves exposed, but with no ligated L5 and L6 nerves. Preparation of the vehicle controls were identical to the group treated with compound, except for administration of vehicles without compound in the vehicle control group.
Tactile sensitivity (Mechanical allodynia) was evaluated using von Frey monofilaments before and after treatment, and animals were included in the study only if the withdrawal threshold value was less than 4 g. One week after surgery, SNL-operated animals, sham-operated animals and vehicle control animals were tested for tactile sensitivity with von Frey monofilaments 3 trials in each animal. All Animals were placed in a stainless steel mash chamber and habituated for 30 min in the test cage. The tactile sensitivity for the ipsilateral hind paw was measured using the up-and-down method (Dixon, 1980) with seven von Frey monofilaments (0.4, 1, 2, 4, 6, 8, and 15 g) in 3 trials. The tactile sensitivity test was followed by Dixon's method (Dixon, 1980). The 50% paw withdrawal threshold for each paw was calculated using the following formula: [Xth] log=[vFr] log+ky where [vFr] is the force of the last von Frey used, k=0.2249 which is the average interval (in log units) between the von Frey monofilaments, and y is a value that depends upon the pattern of withdrawal responses (Dixon, 1980).
All animals were fasted 18 h before the administration of the compounds. Antiallodynic effect of compounds were evaluated at the three dose, orally administrated in a volume of 5 ul/g, bw in a vehicle of 30% (v/v) PEG 400 or 20% (v/v) Tween 80. The test was performed at the peak time of efficacy after compound administration.
The relative values compared to the sham group (% control) were calculated and shown in Table 3, which show an antiallodynic effect of the test compounds on SNL model in rats.

Sprague-Dawley rats [2] = experiment: Antiallodynic activity on Complete Freund's Adjuvant (CFA)-induced inflammatory pain model; conditions: intraperitoneally
Method: Male, Sprague-Dawley rats (210-250 g, Nara Bio, Korea) were habituated for 1 week before CFA injection and allowed free access to food and water throughout the experimentation. Room temperature and humidity were maintained at 24±2 and 50±10%, respectively.
CFA-induced inflammatory pain was induced by the procedure of Nagakura et al. (2003) and Gregory P. et al. (2010) with minor modifications. CFA (sigma, USA) was injected in the right plantar with a 100 ul volume under gaseous anesthesia with isoflurane. Sham controls were injected with 100 ul of saline and preparation of the vehicles without compound in the vehicle control group. Tactile sensitivity (Mechanical allodynia) was evaluated using von Frey monofilaments before and after treatment, and the animals were included in the study only if the withdrawal threshold value was less than 4 g. One week after surgery, CFA-infused treatment animals (n=4-6), sham-operated animals (n=12), and vehicle control animals (n=17) were tested for tactile sensitivity with von Frey monofilaments 3 trials for each animal. All Animals were placed in a stainless steel mesh chamber and habituated for 30 min in the test box. The tactile sensitivity for ipsilateral hind paw was measured using the up-and-down method (Dixon, 1980) with seven von Frey monofilaments (0.4, 1, 2, 4, 6, 8, and 15 g) to 3 trials. Tactile sensitivity test was followed by Dixon's method (Dixon, 1980). The 50% paw withdrawal threshold for each paw was calculated using the following formula: [Xth] log=[vFr] log+ky where [vFr] is the force of the last von Frey used, k=0.2249 which is the average interval (in log units) between the von Frey monofilaments, and y is a value that depends upon the pattern of withdrawal responses (Dixon, 1980).
Antiallodynic effect of compound was evaluated at the dose of 10-60 mg/kg (n=4-6), intraperitoneally administrated in a volume of 5 ul/g bw in a vehicle of 30% (v/v) PEG or 20% (v/v) Tween 80. The test was performed peak time of efficacy (0.5 or 1 hr) after compound administration.
The relative values compared to the sham (% control) were calculated and shown in Table 4, which show an antiallodynic effect of Compound 1 on CFA-induced pain model in rats.

ICR mice [3] = experiment: Anti-epilepsy activity, MES test, mouse
Method: (§1) In the MES test (Ref., G. Villetti et al. Neuropharmacology 40 (2001) 866-878), an electrical stimulus (mice: 50 mA, 60 Hz, 0.2 sec, and rats: 150 mA, 60 Hz, 0.2 sec in the test animal) supplied by an 11A Shocker (IITC Life Science Company) was delivered through corneal electrodes. All mice or rats assigned to any electroshock at peak time were treated with each test compound sample which was dissolved in 30% PEG 400 or 20% tween 80 prepared by saline solvent applied orally before the test. […] Three doses of the test sample were administered orally to 9-18 animals (3-6 mice per dose) for evaluating the respective doses at which 50% of the animals were protected from seizure (ED50). The ED50 value (median effective dose) was calculated by Litchfield and Wicoxon log-probit method which is a dose-response relationship. Experimental animals, male ICR mice and male SD rats, were purchased from OrientBio, Samtako, or Nara Biotech, Korea, and housed in cages (4-5 mice or 3 rats per cage) for 4-5 days. The range of mice body weight was between 19 and 25 grams and range of rats body weight was between 100 and 130 grams.

SD rats = experiment: Anti-epilepsy activity, MES test, rat; conditions: for ED50: Rattus norvegicus, po
Method: as §1

ICR mice [4] = experiment: Anti-epilepsy activity, scPTZ test, mouse
From the text: In this experiment, each test compound sample was formulated as described in Biological Experimental Example I, and administered intraperitoneally to the test animals (mice; ICR or Rat; SD); Experimental animals, male ICR mice and male SD rats, were purchased from OrientBio or Nara biotech, Korea, and housed 4-5 mice per a cage for 4-5 days. The range of mice body weight was used between 19 and 26 grams and range of rats body weight was used between 100 and 130 grams. After Peak time (0.5, 1, 2 and 4 hr) from the administration, PTZ (Pentylenetetrazol) was administered subcutaneously in the concentration capable of inducing 97% intermittent convulsions (mice: 76-110 mg/kg·bw, 10 μl/g, or rats: 79-110 mg/kg·bw, 2 μl/g). If clonic seizure was not observed for at least 30 minutes in the PTZ administered animal, it can be considered that the test compound has anti-epilepsy activity. The median effective dose (ED50) is determined using 6 animals per a concentration (total three different concen-trations), and calculated by Litchfield and Wicoxon log-probit method which is a dose-response relationship.

Sprague-Dawley rats [5] = experiment: Lithium-pilocarpine induced epilepsy test, prevention; conditions: i.p.
Method: Male Sprague-Dawley rats (purchased from Orient Bio Inc. Korea) of body weight 175-200 grams were used for these studies and 3 rats per cage were housed for 4-5 days. On the day prior to SE, rats received 127 mg/kg lithium chloride (Sigma, St. Louis, Mo., U.S.A.) intraperitoneally (i.p.). Approximately 18-20 h following this treatment, rats were given an i.p. injection of CD97 dose (30-43 mg/kg) pilocarpine (Sigma). An i.p. injection of 2 mg/kg methyl-scopolamine (Sigma) was administered 30 min prior to pilocarpine to block the effects of the muscarinic agonist on peripheral cholinergic receptors. Test drugs were dissolved in 30% PEG 400 or 20% tween80 (Sigma).
The drugs were administered intraperitoneally (i.p.) in a volume of 2 ul/g body weight. Pharmacological effects of all of the test materials were evaluated to compare test groups (n=6) with a control group (n=6). Control group was administered vehicle only. The efficacy was measured 0.5, 1, 2, or 4 hours after the administration of the test material. The time point that the most animals were protected was defined as peak time and the ED50 was determined at peak time. The animals were then transferred to observation cages and observed continuously for 90 min. Seizure was elicited in approximately 95% of the control group. Protection was defined as complete absence of seizure grade 3-5 (Racine scale; Racine, 1972) over the 90-min observation period. The effective dose of the compound necessary to protect 50% of the animals against seizures compared to controls (i.e. ED50) was determined by a curve fitting program (Excel 2007, Microsoft).

[6] = Rattus norvegicus, ip, read-out: CFA-induced pain model efficacy %
[7] = po, read-out: MES test (po) efficacy %

SMILES | SNL Peak Time (Sprague-Dawley rats [1]) | CFA-induced pain model Peak Time (Sprague-Dawley rats [2]) | MES test (po) Peak time (ICR mice [3]) | SNL efficacy % (Sprague-Dawley rats [1]) | response vs control in vivo at 50 mg/kg (Sprague-Dawley rats [2]; [6]) | MES test (po) Peak time (SD rats) | ED50 (SD rats) | responders at 60 mg/kg (ICR mice [3]; [7]) | further results
C[C@H](OS(N)(=O)=O)[C@@H](O)c1ccccc1I [Example 19, (1S, 2S)-1-(2-iodophenyl)-1-hydroxypropan-2-yl sulfamate] | 1 h | 1 h | 1 h | – | – | – | – | – | ED50 (Sprague-Dawley rats [1]): 44.6 mg/kg; response vs control in vivo at 30 mg/kg (Sprague-Dawley rats [2]; Rattus norvegicus, ip, 30 mg/kg, read-out: CFA-induced pain model efficacy %): 24.3%; responders at 30 mg/kg (ICR mice [3]; po, 30 mg/kg, read-out: MES test (po) efficacy %): 66.6%
C[C@@H](OS(N)(=O)=O)[C@H](O)c1ccccc1I [Example 20, (1R, 2R)-1-(2-iodophenyl)-1-hydroxypropan-2-yl sulfamate] | 1 h | 0.5 h | 1 h | 30(58.7%) | 28.7% | (2 h) | 20.1 mg/kg | 16.6% | –
C[C@@H](OS(N)(=O)=O)[C@H](O)c1ccc(Cl)cc1Cl [Example 4, (1R, 2R)-1-(2,4-dichlorophenyl)-1-hydroxypropan-2-yl sulfamate] | – | – | – | – | – | 4 h | – | – | scPTZ test (ip) Peak time (ICR mice [4]): 2 h; scPTZ test (ip) efficacy % (ICR mice [4]; 100 mg/kg): 100(100%); MES test (po) efficacy % (SD rats; 10 mg/kg): 33%
COCO[C@H](c1ccccc1F)[C@@H](C)OS(N)(=O)=O [Example 73, (1R, 2R)-1-(2-fluorophenyl)-1-(methoxymethoxy)propan-2-yl sulfamate] | 1 h | 0.5 h | 1 h | 30(31.3%) | 38.5% | (4 h) | 34.8 mg/kg | 33.3% | –
C[C@H](OS(N)(=O)=O)[C@@H](O)c1ccccc1Cl [Example 1, (1S, 2S)-1-(2-chlorophenyl)-1-hydroxypropan-2-yl sulfamate] | – | – | 2 h | – | – | – | – | – | scPTZ test (ip) Peak time (ICR mice [4]): 0.5 h; ED50 (ICR mice [4]; ip): 76.6 mg/kg; ED50 (ICR mice [3]; po): 46.9 mg/kg
C[C@@H](OS(N)(=O)=O)[C@H](O)c1ccccc1F [Example 18, (1R, 2R)-1-(2-fluorophenyl)-1-hydroxypropan-2-yl sulfamate] | 0.5 h | 0.5 h | 1 h | 30(48.2%) | 46.6% | (2 h) | 14.2 mg/kg | – | ED50 (ICR mice [3]; po): 62 mg/kg
C[C@@H](OS(N)(=O)=O)[C@H](O)c1cccc(Cl)c1Cl [Example 10, (1R, 2R)-1-(2,3-dichlorophenyl)-1-hydroxypropan-2-yl sulfamate] | – | – | 1 h | – | – | – | – | – | Lithium pilocarpine model (pre) peak time (Sprague-Dawley rats [5]): 1 h; Lithium pilocarpine model (pre) efficacy % (Sprague-Dawley rats [5]; 100 mg/kg): 66.6%; responders at 100 mg/kg (ICR mice [3]; po, 100 mg/kg, read-out: MES test (po) efficacy %): 83.3%
COCO[C@@H](c1ccccc1Cl)[C@H](C)OS(N)(=O)=O [Example 69, (1S, 2S)-1-(2-chlorophenyl)-1-(methoxymethoxy)propan-2-yl sulfamate] | 1 h | 0.5 h | – | – | – | 1 h | – | – | ED50 (Sprague-Dawley rats [1]): 48.2 mg/kg; ED50 (Sprague-Dawley rats [2]; Rattus norvegicus, ip, at peak time): 29.5 mg/kg; Lithium pilocarpine model (pre) peak time (Sprague-Dawley rats [5]): 1 h; Lithium pilocarpine model (pre) efficacy % (Sprague-Dawley rats [5]; 50 mg/kg): 33.3%; MES test (po) efficacy % (SD rats; 20 mg/kg): 16.6%
COCO[C@H](c1ccccc1I)[C@@H](C)OS(N)(=O)=O [Example 75, (1R, 2R) 1-(2-iodophenyl)-1-(methoxymethoxy)propan-2-yl sulfamate] | 1 h | 0.5 h | 1 h | 30(64.9%) | 28.1% | (2 h) | 4.2 mg/kg | 33.3% | –
